Experimental data: patent US11485762B2, “Compositions and methods for inhibition of L-plastin activity in osteoclasts to reduce bone loss” (University of Maryland, Baltimore, priority 2017, dated 2022)
Substitutions are numbered along the chain they refer to.

B1: FL-LPL: HA-TAT fused full-length L-plastin protein (70-75 kDa), purified from bacterial expression vector pTAT-HA (protein, UniProt P13796 1-627, looked up)
chain: MARGSVSDEEMMELREAFAKVDTDGNGYISFNELNDLFKAACLPLPGYRVREITENLMATGDLDQDGRISFDEFIKIFHGLKSTDVAKTFRKAINKKEGICAIGGTSEQSSVGTQHSYSEEEKYAFVNWINKALENDPDCRHVIPMNPNTNDLFNAVGDGIVLCKMINLSVPDTIDERTINKKKLTPFTIQENLNLALNSASAIGCHVVNIGAEDLKEGKPYLVLGLLWQVIKIGLFADIELSRNEALIALLREGESLEDLMKLSPEELLLRWANYHLENAGCNKIGNFSTDIKDSKAYYHLLEQVAPKGDEEGVPAVVIDMSGLREKDDIQRAECMLQQAERLGCRQFVTATDVVRGNPKLNLAFIANLFNRYPALHKPENQDIDWGALEGETREERTFRNWMNSLGVNPRVNHLYSDLSDALVIFQLYEKIKVPVDWNRVNKPPYPKLGGNMKKLENCNYAVELGKNQAKFSLVGIGGQDLNEGNRTLTLALIWQLMRRYTLNILEEIGGGQKVNDDIIVNWVNETLREAKKSSSISSFKDPKISTSLPVLDLIDAIQPGSINYDLLKTENLNDDEKLNNAKYAISMARKIGARVYALPEDLVEVNPKMVMTVFACLMGKGMKRV
modifications: full-length HA-TAT tag
notes: HA-TAT fused full-length L-plastin protein (70-75 kDa), purified from bacterial expression vector pTAT-HA
B2: mutated FL-LPL: TAT-fused full-length L-plastin with Ser-5 and Ser-7 mutated to Ala-5 and Ala-7 (protein, UniProt P13796 1-627, looked up, variant S5A S7A)
chain: B1 chain with S5A, S7A
modifications: full-length HA-TAT tag

Tests used:
[1] = system: osteoclasts; experiment: Resorption pit formation assay on dentine slices; assay type: cell-based, mouse; settings: for resorption of dentine matrix: sNT-LPL peptides, 12-16 hours
Description: Osteoclasts transduced with TAT-LPL peptides of interest for 30 minutes, were re-plated on dentine slices for 10-12 hours in the presence of TAT-fused peptides of interest and TNF-α. Some cultures were treated with a neutralizing antibody to TNFR-1. Resorption assay was performed as described previously (Chellaiah et al., 2000, J. Cell Biol., 148: 665-678; Chellaiah at al., 2000, J. Biol. Chem., 275: 11993-12002). Resorbed area were also scanned in confocal microscopy. Images were stored in TIF format and processed by Adobe Photoshop (Adobe Systems Inc.) (Chellaiah et al., 2000, J. Cell Biol, 148: 665-678). The resorbed pit areas were quantified and data were compiled from four slices per treatment and per experiment. The resorbed pit areas (20-25 pits/slice) were quantified and data were compiled from four slices per treatment. […] The area of the pit was determined from the free-hand traced perimeter using the LSM software (Chellaiah et al., 2000, J. Cell Biol., 148: 665-678). As per Cosmo Bio recommendations, the results of one experiment was compiled for the presentation.
Resorption was evaluated using dentine slices as described previously (Chellaiah et al., 2000, J. Biol. Chem., 275: 11993-12002). After transduction for 30 minutes, osteoclasts were re-plated on dentine slices for 12-16 hours to detect resorption lacuna in the presence of respective LPL peptide and TNF-α. Each treatment was done in quadruplicates Subsequently, dentine slices were stained with Mayer's acid hematoxylin (Sigma) for 6 minutes followed by washing several times with water. Excess stain in the resorbed area and stained cell debris were removed with a cotton swab. The pits were imaged under an X40 objective in a Zeiss inverted phase contrast microscope fitted with a CCD camera (Chellaiah et al., 2003, J Biol Chem 278: 29086-29097; Chellaiah et al., 2003, Mol Biol Cell, 14: 173-189). Images were stored in TIF format and processed by Adobe Photoshop (Adobe Systems Inc.).

[2] = system: endogenous LPL; experiment: Phosphorylation of endogenous (cellular) LPL in osteoclasts (LPL immunoprecipitation, p-Serine immunoblot); assay type: cell-based, mouse; settings: for inhibitory effect on the phosphorylation of cellular LPL: sNT-LPL peptides, 3-4 hours; for inhibitory effect on the phosphorylation of cellular LPL / phosphorylation of endogenous LPL: bone particles and TNF-α; for phosphorylation of endogenous LPL: TAT-fused LPL peptides 150 nM, 3 hours
Description: Bone particles (60-80 μm in size) were prepared as described previously (Ma et at, 2010, J. Biol. Chem., 285: 29911-29924). After flushing the marrow cells for osteoclast differentiation as described above, long bones of mice (free of cells inside and muscles outside) were washed extensively with PBS and kept in ethanol until use. Long bones were air-dried in the hood and homogenized by a mini blender. Bone particles were sieved and used for experiments. Multinucleated osteoclasts were seen from day four onward. At this time cultures were added with bone particles (100 μg/ml media) for 3-4 hours or 12-14 hours in the presence of TNF-α (20 ng/ml). Some cultures were treated with 3-5 μg/ml TNFR1 antibody. Osteoclasts were preincubated with the TNFR1 antibody for 60-90 minutes before the addition of TNF-α to enhance the blocking effect. Osteoclasts incubated with bone particles for 3-4 or 12-14 hours in the presence of TNF-α were used for lysate preparations.
The vector pTAT-HA has an N-terminal 6-histidine leader (Nagahara et al., 1998, Nature Medicine, 4:1449-1452). […] For transduction with TAT-fused peptides (100-150 nM), osteoclasts were first kept in serum-free α-MEM for two hours. Afterward, TAT proteins of interest, bone particles, and TNF-α were added to cells in serum-free α-MEM Lysates were made from these cells for immunoprecipitation and immunoblotting analyses. Osteoclasts plated on dentine slices in the presence of TAT-proteins of interest and TNF-α for 3-6 hours or 12-14 hours were used for immunostaining or actin staining analyses. Osteoclast cultures treated only with TNF-α were used as controls.
Following various treatments, osteoclasts were washed three-times with cold PBS and lysed in a radioimmune precipitation buffer (RIPA; 10 mM Tris-HCl, pH 7.2, 150 mM NaCl, 1% deoxycholate, 1% Triton X-100, 0.1% SDS, 1% aprotinin, 2 mM PMSF, […], and 1% aprotinin). Cells were rocked on ice for 15 minutes and scraped off with a cell scraper. Cell lysates were centrifuged at 15,000 rpm for 5 minutes at 4° C., and the supernatant was saved. Protein contents were measured using Bio-Rad protein assay reagent. Equal amounts of lysate proteins (100-150 μg) were used for immunoprecipitations. Immunoprecipitations and Western blotting were done as described previously (Chellaiah et al., 1998, J. Biol. Chem., 273: 11908-11916; Chellaiah et al., 1996, Mol. Biol. Cell, 7: 743-753).
After cells were kept in the serum-free α-MEM medium for two hours, LPL peptides of interest were added to a final concentration of 100-150 nM to cells in serum-free media (Chellaiah et al, 2000, J. Biol. Chem., 275: 11993-12002). Osteoclasts transduced with peptides of interest and added with bone particles in the presence of TNF-α for 3-4 hours or 12-14 hours were used for lysate preparations. Cells plated on coverslips and treated with peptides were used for actin staining to detect podosomes. After transduction for 30 min., osteoclasts were re-plated on dentine slices with respective LPL peptide and TNF-α for 3-6 hours or 12-14 hours. These cells were used for Actin staining with rhodamine-phalloidin or immunostaining analyses (Chellaiah et al., 2000, J. Biol. Chem., 275: 11993-12002; Chellaiah et al., 2000, J. Cell. Biol., 148: 665-678; Chellaiah et al., 2003, J Biol Chem 278: 29086-29097).
Following various treatments, osteoclasts were washed three times with cold PBS and lysed in a Triton-containing lysis buffer as described (Chellaiah et al., 1996, Mol. Biol. Cell, 7: 743-753). Cells were rocked on ice for 15 minutes, and scraped off with a cell scraper. Cell lysates were centrifuged at 15,000 rpm for 5 minutes, at 4° C., and the supernatant was saved. Protein contents were measured using Bio-Rad protein assay reagent. Osteoclast cultures were also subjected to a trypan blue dye (Sigma T8154) exclusion test to determine the viability of osteoclasts after various treatments. […]

| Molecule | resorption of dentine matrix [1] | inhibitory effect on the phosphorylation of cellular LPL [2] | cellular levels of LPL ([2]; FIG. 8B and FIG. 13B (mouse and RAW-derived osteoclasts)) | resorption (resorption pits) ([1]; dentine 10-12 hours, TNF-α) | phosphorylation of endogenous LPL [2] |
| --- | --- | --- | --- | --- | --- |
| MARGAVADEE [Peptide P2, TAT-fused sNT-LPL peptide, Ser-5 and Ser-7 substituted to Alanine (A5A7)] | no inhibitory effect | No significant inhibitory effect |  |  |  |
| MARGSVSDEE [Peptide P1, TAT-fused small molecular weight (10aa) amino-terminal LPL peptide, unsubstituted (S5S7)] | Reduced resorption of dentine | inhibition is significant | did not change |  |  |
| SRSGMVEEAD [Peptide P5, TAT-fused scrambled sNT-LPL peptide, control, reference compound] | no inhibitory effect | No significant inhibitory effect |  |  |  |
| B1 |  |  |  | increase in the number and size (area) of resorption pits | basal level phosphorylation |
| B2 |  |  |  |  | basal level phosphorylation |
